Laboratory results as given in patent US10849935B2, “Method to suppress the systemic toxicity of chemotherapeutic drugs” (United Arab Emirates University, priority 2013, dated 2020).
Values joined by “and” are separate entries in the source; they are usually repeats but may differ in a detail not shown here. Equal entries are not always repeated. Where two headings read alike, the source gives them in different places.

Assays:
[1] = test system: 4T1 metastatic breast cancer; test: 4T1 metastatic breast adenocarcinoma model: growth and survival; assay type: in vivo, BALB/c mice
Procedure: Two different syngeneic tumor models were used in this study, namely, MC38 colorectal cancer and 4T1 metastatic breast adenocarcinoma.
For the 4T1 breast cancer cells, BALB/c mice were implanted orthotopically in the mammary fat pad with 1×10^6 cancer cells/mouse.
For the colon and breast cancer models, mice bearing tumors were treated with (1) saline (control), (2) manuka honey (50% w/v), (3) Oxaliplatin at 6 mg/kg or (4) manuka honey (50% w/v)+Oxaliplatin (6 mg/kg). The manuka honey (50% w/v) was given intravenously (i.v.) twice per week. Oxaliplatin 6 mg/kg was administered intraperitoneally (i.p.) once per week. The total treatment period was 3 weeks.

[2] = test system: caspase-9 in B16.F1 cells; test: Western blot of caspase-9 activation; assay type: cell-based, mouse; settings: paclitaxel 10 ng/ml, 24 hr
Procedure: (§1) B16.F1 melanoma cells were treated with manuka honey (5% w/v), taxol (10 or 50 ng/ml) or medium as control. After 24 hr of culture, enzymatic activity of caspase 3/7 (FIG. 3A) and caspase 8 (FIG. 3B) were determined using specific kits and following manufacturer's recommendation. The data is presented as fold increase in caspase activity after normalization to the number of viable cells per culture. FIG. 3C. Western blot analysis of caspase-9 activation B16.F1 cells treated with manuka honey or taxol. […] Protein extracts were resolved on 10% SDS-PAGE and immunoblotted with caspase-9-specific ployclonal antibody capable of detecting both full length and cleaved forms of caspase-9. The cell extracts were also probed with an antibody against β-actin as a control for protein loading.

[3] = test system: caspase 3/7 in B16.F1 melanoma cells; test: Caspase 3/7 enzymatic activity in treated cells; assay type: cell-based, mouse; settings: paclitaxel 10 ng/ml, 24 hr
Procedure: as §1
(§2) A critical component for the initiation of the apoptosis pathway is the sequential recruitment of a number of caspases leading to the activation of the effector caspase-3. This, in turn, leads to the cleavage of a number of vital cellular substrates required for cell viability. Next explored was the mechanism of apoptosis induction in manuka honey-treated cancer cells.

Bcl-2 in B16.F1 cells = test: Western blot of Bcl-2 expression; assay type: cell-based, mouse; settings: taxol 50 ng/ml
Procedure: (§3) FIGS. 4A-4C. Manuka honey induces late apoptotic events in cancer cells. FIG. 4A. B16.F1 cells were incubated for 24 hr or 72 hr in the absence or presence of Manuka honey (M; 5%) or taxol (T; 50 ng/ml). Whole cell extracts (100 μg/lane) were resolved on 10% SDS-PAGE followed by Western blotting with an antibody specific to Bcl-2. FIG. 4 B. Cells were treated for 24 hr or 72 hr with the indicated concentrations of manuka honey (0.6%-5.0%) or taxol (50 ng/ml). Whole cell extracts (100 μg/lane) were resolved on 10% SDS-PAGE followed by Western blotting with a PARP-specific antibody. The full-length (116 kD) and cleaved (89 kD) forms of PARP are indicated. The cell extracts were also probed with an antibody against β-actin as a control for loading. FIG. 4C. Following treatment for 72 hr, cells were lysed and DNA extracted by centrifugation and phenol-chloroform extraction. Extracted DNA was resolved on 1.5% agarose gel and stained with ethidium bromide to visualize the oligonucleosomal fragments. The results are representative of two independent experiments.
Bcl-2 is a member of a large family of cell survival-regulating proteins consisting of both proand anti-apoptotic regulators. […] Therefore the level of Bcl-2 expression in B16.F1 cells following treatment with manuka honey or taxol was determined.

[4] = test system: glutathione (GSH) in liver, spleen and kidney; settings: 2 injections per week for 3 weeks
Procedure: Animals were treated with saline, paclitaxel, manuka honey or manuka honey plus paclitaxel. At the end of a 3-week treatment, animals were sacrificed and organs removed for toxicity determination. The levels of glutathione (GSH) in the liver (FIG. 12A) spleen (FIG. 12B) and kidney (FIG. 12C) were determined. The data represent the mean±SEM of a minimum of 3 determinations per experimental group. For all panels, asterisks denote significant differences between the indicated groups (*, p<0.05; **, p<0.01; ***, p<0.001).
Groups of mice were injected with manuka honey, paclitaxel, manuka honey plus paclitaxel or saline for a total period of 3 weeks (2 injections per week). The animals were then sacrificed and their organs (liver, spleen, and kidney) obtained and analyzed for the levels of glutathione (GSH), a major antioxidant effector.

[5] = test system: caspase 3-positive (apoptotic) tumor cells; test: Caspase 3 immunohistochemistry of tumor sections; assay type: in vivo; settings: tumors of treated melanoma-bearing mice, mean±SEM
Procedure: Tumor tissue sections were prepared after treatment with saline (FIG. 11A), manuka honey (FIG. 11B), paclitaxel (FIG. 11C) or manuka honey+paclitaxel (FIG. 11D) and stained using caspase 3-specific antibody. Representative images at high magnification (bar=50 μm) are shown. Arrows indicate representative, brown-staining, apoptotic cells. Necrotic regions are also indicated (n). The results are representative of two independent experiments. (FIG. 11E) Quantitative estimation of the number of caspase-3 positive cells in tumor sections of different treatment groups. The data is shown as the mean±SEM of the number of positive cells per high power field. Tumors were obtained from 2-3 mice per treatment group and multiple sections were made from each tumor tissue. The number of positive cells was determined by counting the number of cells in 20 high power fields per section.
Tumor tissue sections were prepared from tumors obtained from animals treated with manuka honey, paclitaxel, manuka honey plus paclitaxel or saline as control. […] By counting the number of caspase 3-positive cells in a random selection of 10-20 high power fields (hpf), a quantitative estimate of apoptotic cell number could be achieved.

B16.F1 cells = test: Annexin V-FITC / PI flow cytometry (apoptosis); assay type: cell-based, mouse; settings: taxol 10 ng/ml, 24 hr
Source text: The results are representative of three independent experiments.

B16.F1 melanoma cells = test: Cell viability, CellTiter-Glo luminescent assay, B16.F1
Procedure: Skin cancer cells (B16.F1 cell line) (FIGS. 1A-1C), colon cancer cells (CT26 cell line) (FIGS. 1D, 1E) and breast cancer cells (MCF-7 cell line) (FIGS. 1F, 1G) were plated at 5×10^3 cells per well and incubated for 24 hr (FIGS. 1A, 1D, 1F), 48 hr (FIG. 1B) or 72 hr (FIGS. 1C, 1E, 1G) in the absence or presence of the indicated concentrations of manuka honey (range 0.3% to 5.0% w/v), or taxol (10 ng/ml or 50 ng/ml final concentration). At the end of the incubation period, cell viability was determined using CellTiter-Glo luminescent assay. Results are expressed as percentage viability in treated cell cultures compared to control, untreated, cells and are representative of 3 (for B16.F1 cells) or 2 (for CT26 and MCF-7 cells) independent experiments. Asterisks denote statistically significant differences in viability of experimental groups compared to control (*, p<0.05; **, p<0.01; ***, p<0.001).
The potential effect of manuka honey on cancer cell proliferation was investigated using three tumor cell lines differing in type and origin, the murine melanoma (B16.F1) and colon carcinoma (CT26) cells and the human breast cancer (MCF-7) cell line. Cells were incubated with different concentrations of manuka honey (range 0.3 to 2.5% w/v) for 24-72 hrs. As a positive control, cells were cultured with taxol at a final concentration of 10 or 50 ng/ml.

PARP in B16.F1 cells = test: Western blot of PARP cleavage; assay type: cell-based, mouse; settings: taxol 50 ng/ml, 24 hr
Procedure: as §3
One of the target proteins for active caspase-3 is the DNA repair enzyme poly(ADP-ribose) polymerase (or PARP). […]

B16.F1 melanoma tumor = settings: for inhibition of tumor growth vs saline control: day 18 post treatment
Procedure: The activity of manuka honey was evaluated in B16.F1 melanoma tumor model. Mice were divided in four groups and treated by intravenous administration (100-200 μl 2 times per week for up to 3 weeks) of manuka honey alone, at either 5%, 10% or 20% w/v, or saline as a control. Tumor volume and animal survival were followed for up to 3 weeks post treatment initiation.
The antitumor activity of manuka honey was evaluated in the syngeneic B16.F1 melanoma tumor model. C57BL/6 mice with established tumors (mean>50 mm3) were divided into four groups and treated by intravenous administration (2 times per week for up to 3 weeks) of manuka honey alone (50% w/v), taxol alone (10 mg/kg), manuka honey (50% w/v) plus taxol (10 mg/kg) or saline as a control. Tumor volume and animal survival were followed for up to 3 weeks post treatment initiation. […] The effect of the various treatments on animal survival was also followed (FIG. 8B).
C57BL/6 mice with established tumors (mean>50 mm^3) were divided into four groups and treated by intravenous administration (2 times per week for up to 3 weeks) of manuka honey alone (50% w/v), taxol alone (5 mg/kg), manuka honey (50% w/v) plus taxol (5 mg/kg) or saline as a control. Tumor volume and animal survival were followed for up to 3 weeks post treatment initiation.
In a further experiment the mice were divided into four groups and treated by intravenous administration (2 times per week for up to 3 weeks) of manuka honey alone (50% w/v), taxol alone (8 mg/kg), manuka honey (50% w/v) plus taxol (8 mg/kg) or saline as a control. Tumor volume and animal survival were followed for up to 3 weeks post treatment initiation.
One syngeneic tumor model was used in this study, namely the B16.F1 melanoma (skin cancer) model. […] The procedure for tumor implantation is briefly as follows, C57BL/6 (8-10 mice per group) were inoculated subcutaneously in the right flank with 2×10^5 B16.F1 melanoma cells and staged to day 12-14.
Tumor growth was followed by quantitative determination of tumor volume, measured as the product of the perpendicular diameters using digital calipers, according to the formula: volume=L×W^2/2. For the B16.F1 model, once tumors were established, mice were given intravenous (i.v.) doses (100 μl per injection) of (1) saline (control), (2) 50% (w/v) manuka honey (MH) suspension in sterile saline, (3) paclitaxel (at doses of 5 or 8 mg/kg body weight) or (4) MH (50% w/v)+paclitaxel. All treatments were routinely administered twice per week, using freshly prepared reagents. Tumor growth and animal survival were followed for the subsequent 50 days.

[6] = test system: caspase 8 in B16.F1 melanoma cells; test: Caspase 8 enzymatic activity in treated cells; assay type: cell-based, mouse; settings: paclitaxel 10 ng/ml, 24 hr
Procedure: as §1, §2

[7] = manuka honey 50% w/v, taxol 10 mg/kg, i.v. 2 times per week

SMILES: O=C1[O][Pt]2([NH][C@@H]3CCCC[C@H]3[NH]2)[O]C1=O [Oxaliplatin]
- effect on cancer growth and animal survival ([1]; Oxaliplatin 6 mg/kg, MH 50% w/v): only a marginal effect on cancer growth and animal survival
- percentage survival ([1]; day 50, Oxaliplatin 6 mg/kg i.p. once per week, manuka honey 50% w/v i.v. twice per week, 3 weeks): 22%

SMILES: CC(=O)O[C@H]1C(=O)[C@@]2(C)[C@H]([C@H](OC(=O)c3ccccc3)[C@]3(O)C[C@H](OC(=O)[C@H](O)[C@@H](NC(=O)c4ccccc4)c4ccccc4)C(C)=C1C3(C)C)[C@]1(OC(C)=O)CO[C@@H]1C[C@@H]2O [taxol, paclitaxel]
- induction of caspase-9 [2]: No evidence for induction of caspase-9
- increase in caspase 3/7 activity [3]: 2 fold
- Bcl-2 expression (Bcl-2 in B16.F1 cells; 24 hr): substantially decreased
- Bcl-2 expression (Bcl-2 in B16.F1 cells; 72 hr): undetectable
- organ GSH levels (liver, spleen, kidney) [4]: marked decrease in organ GSH levels
- number of caspase 3-positive cells per high power field in tumor sections [5]: 11.7±1.8 per hpf
- Annexin V-positive (apoptotic) cells (B16.F1 cells): 32.8%
- late apoptotic cells (positive for both Annexin V-FITC and PI), % of total (B16.F1 cells): 3.9%
- viability of B16.F1 cells, % of control (B16.F1 melanoma cells; taxol 10 ng/ml, 24 hrs): 90%
- viability of B16.F1 cells, % of control (B16.F1 melanoma cells; taxol 10 ng/ml, 72 hrs): 64%
- viability of B16.F1 cells, % of control (B16.F1 melanoma cells; taxol 50 ng/ml, 24 hrs): 83%
- viability of B16.F1 cells, % of control (B16.F1 melanoma cells; taxol 50 ng/ml, 72 hrs): 34%
- cleavage of PARP into the 89 kD fragment (PARP in B16.F1 cells): cleavage of PARP into the 89 kD fragment was evident
- inhibition of tumor growth vs saline control (B16.F1 melanoma tumor; [7]): ~61%
- inhibition of tumor growth vs saline control (B16.F1 melanoma tumor; manuka honey 50% w/v, taxol 10 mg/kg, i.v. 2 times per week, listed as paclitaxel): 60% and 61%
- survival of tumor-bearing mice (B16.F1 melanoma tumor; day 25, paclitaxel 5 mg/kg, MH 50% w/v): no significant difference in animal survival
- percentage survival (B16.F1 melanoma tumor; day 25, paclitaxel 8 mg/kg, manuka honey 50% w/v): 36% and 36.4%
- overall survival at end of observation period (B16.F1 melanoma tumor; day 25 post treatment, manuka honey 50% w/v, taxol 10 mg/kg): 20%
- day after initiation of treatment at which inhibition/delay of tumor growth was first observed (B16.F1 melanoma tumor; [7]): 7 days
- effect on tumor growth (FIG. 13) (B16.F1 melanoma tumor; paclitaxel 5 mg/kg, MH 50% w/v, i.v. twice per week): no effect of tumor growth
- effect on tumor growth (FIGS. 17, 18) (B16.F1 melanoma tumor; paclitaxel 8 mg/kg, MH 50% w/v, i.v. twice per week): intermediate effect on reducing tumor growth
- median survival (B16.F1 melanoma tumor; post treatment, manuka honey 50% w/v, taxol 10 mg/kg, i.v. 2 times per week): 20 days
- tumor volume and survival vs saline (FIG. 9) (B16.F1 melanoma tumor; taxol 5 mg/kg, manuka honey 50% w/v, i.v. 2 times per week, 14 days post-treatment): ineffective at reducing tumor volume
- increase in caspase-8 activity [6]: 2 fold
